Results on four compounds are retold here after US20050228031A1, “Tyrosine kinase inhibitors” (priority 2004, published 2005).

For `Cc1cc(C)cc(Nc2ncc(-c3ccccc3)s2)c1` [Compound 2-3, N-(3,5-dimethylphenyl)-5-phenyl-1,3-thiazol-2-amine], the melting point (usually the temperature of the solid-liquid transition) stood at 144 °C.

With `c1ccc(Nc2ncc(-c3ccccc3)o2)cc1` [Compound 5-4, N,5-diphenyl-1,3-oxazol-2-amine], the melting point fell in the range of 169 to 170 °C.

With `c1ccc(-c2cnc(Nc3ccc4c(c3)CCC4)o2)cc1` [Compound 5-5, N-(2,3-dihydro-1H-inden-5-yl)-5-phenyl-1,3-oxazol-2-amine], the melting point worked out at 152 °C.

The compound `FC(F)(F)c1cc(Nc2ncc(-c3ccccc3)o2)cc(C(F)(F)F)c1` [Compound 5-6, N-[3,5-bis(trifluoromethyl)-phenyl]-5-phenyl-1,3-oxazol-2-amine] yielded a melting point of 203 °C.
